In patent US11535643B2, “Macrolides with modified desosamine sugars and uses thereof” (President and Fellows of Harvard College, priority 2015, dated 2022):
Values after ≈ are worked out from the molar mass of the structure shown.

Assays:
Format in all cases: cell-based
[1] = tested on: K. pneumoniae; assay: Broth dilution MIC determination (CLSI) against K. pneumoniae strains
Description: (§1) Minimum inhibitory concentrations (MICs) for macrolides described herein have been determined for unique strains of S. aureus, S. pneumoniae, S. pyogenes, E. faecalis, E. coli, A. baumannii, K. pneumoniae, P. aeruginosa, and H. influenzae, including several multidrug-resistant strains, with a special focus on macrolide resistant mechanisms. Azithromycin and solithromycin were included as control compounds. CLSI standard procedures for broth dilution MIC determination were used.

[2] = tested on: S. pneumoniae; assay: Broth dilution MIC determination (CLSI) against S. pneumoniae strains
Description: as §1, with “used. Data for exemplary compounds described herein is shown in Tables M1-M7 and in Tables N1-N4.” for “used.”

[3] = tested on: S. aureus; assay: Broth dilution MIC determination (CLSI) against S. aureus strains
Description: as §1, with “used. Data for exemplary compounds described herein is shown in Tables M1-M7 and in Tables N1-N4.” for “used.”

[4] = tested on: A. baumannii; assay: Broth dilution MIC determination (CLSI) against A. baumannii strains
Description: as §1, with “used. Data for exemplary compounds described herein is shown in Tables M1-M7 and in Tables N1-N4.” for “used.”

[5] = tested on: E. faecalis; assay: Broth dilution MIC determination (CLSI) against E. faecalis strains
Description: as §1, with “used. Data for exemplary compounds described herein is shown in Tables M1-M7 and in Tables N1-N4.” for “used.”

[6] = tested on: S. pyogenes; assay: Broth dilution MIC determination (CLSI) against S. pyogenes strains
Description: as §1, with “used. Data for exemplary compounds described herein is shown in Tables M1-M7 and in Tables N1-N4.” for “used.”

[7] = tested on: E. coli; assay: Broth dilution MIC determination (CLSI) against E. coli strains
Description: as §1, with “used. Data for exemplary compounds described herein is shown in Tables M1-M7 and in Tables N1-N4.” for “used.”

[8] = tested on: P. aeruginosa; assay: Broth dilution MIC determination (CLSI) against P. aeruginosa strains
Description: as §1, with “used. Data for exemplary compounds described herein is shown in Tables M1-M7 and in Tables N1-N4.” for “used.”

[9] = K pneumomae ATCC10031, strain MP-14 (Table N2)
[10] = K. pneumoniae clinical, strain MP546 (Table N2)
[11] = K. pneumoniae clinical, strain MP548 (Table N2)
[12] = S. pneumoniae ATCC49619, strain MP-21 (Table N2)
[13] = S. pneumoniae mefA, strain MP-626 UNT-038 (Table N2)
[14] = S. pneumoniae mefA, strain MP-627 UNT-039 (Table N2)
[15] = S. aureus (MRSA) GISA USA600, strain MP-619 UNT-120 (Table N2)
[16] = S. aureus (MRSA) ST-228 cErm, strain MP-513 (Table N2)
[17] = S. aureus (MRSA) USA100, strain MP-618 UNT-096 (Table N2)
[18] = S. aureus (MRSA) USA300, strain MP-549 (Table N2)
[19] = S. aureus (MRSA) ermA phenotype, strain MP-620 UNT-146 (Table N2)
[20] = S. aureus ATCC29213, strain MP-12 (Table N2)
[21] = S. aureus ATCCBAA-977, strain MP-17 (Table N2)
[22] = A. baumannii ATCC19606, strain MP-15 (Table N2)
[23] = A. baumannii clinical, strain MP576 (Table N2)
[24] = A. baumannii clinical, strain MP577 (Table N2)
[25] = E. faecalis ATCC29212, strain MP-24 (Table N2)
[26] = E. faecalis van resistant, strain UNT-039 (Table N2)
[27] = S. pyogenes ATCC19615, strain MP-19 (Table N2)
[28] = S. pyogenes mac resistant, strain MP-625 UNT-014 (Table N2)
[29] = E. coli ATCC25922, strain MP-4 (Table N2)
[30] = E. coli ATCC25922:tolC, strain MP-9 (Table N2)
[31] = E. coli clinical, strain MP541 (Table N2)
[32] = E. coli clinical-cErm, strain MP532 (Table N2)
[33] = P. aeruginosa ATCC27853, strain MP-3 (Table N2)
[34] = P. aeruginosa PAO1, strain MP-7 (Table N2)
[35] = P. aeruginosa PAO1:mex, strain MP-8 (Table N2)
[36] = K. pneumoniae ATCC 10031, strain MP-14 (Table N4)
[37] = K. pneumoniae Clinical, strain MP-548 (Table N4)
[38] = K. pneumoniae Clinical-MDR, strain MP-546 (Table N4)
[39] = S. aureus ATCC29213, strain MP-12 (Table N4)
[40] = S. aureus BAA 977 iErm, strain MP-17 (Table N4)
[41] = S. aureus Clinical-cErm, strain MP-513 (Table N4)
[42] = S. aureus USA300-msr(a), strain MP-549 (Table N4)
[43] = A. baumannii ATCC 19606, strain MP-15 (Table N4)
[44] = A. baumannii Clinical-AZT low, strain MP-577 (Table N4)
[45] = A. baumannii Clinical-MDR, strain MP-576 (Table N4)
[46] = E. coli ATCC25922, strain MP-4 (Table N4)
[47] = E. coli Clinical, strain MP-541 (Table N4)
[48] = E. coli clinical-cErmB, strain MP-532 (Table N4)
[49] = E. coli tolC, strain MP-9 (Table N4)
[50] = P. aeruginosa ATCC27853, strain MP-3 (Table N4)
[51] = P. aeruginosa PAO1, strain MP-7 (Table N4)
[52] = P. aeruginosa mex-oprM-deletion, strain MP-8 (Table N4)

CCC1OC(=O)C(C)C(=O)C(C)C(OC2OC(C)CC(NCc3cccnc3)C2O)C(C)(OC)CC(C)CNC(C)C2N(CCCCn3cc(-c4cccc(N)c4)nn3)C(=O)OC12C (stereo not shown) [FSM-120384]
MIC [1, 9]: 16 µg/mL (≈ 18 µM)
MIC [1, 10]: >64 µg/mL
MIC [1, 11]: >64 µg/mL
MIC [2, 12]: 2 µg/mL (≈ 2.24 µM)
MIC [2, 13]: 0.5 µg/mL (≈ 0.561 µM)
MIC [2, 14]: 1 µg/mL (≈ 1.12 µM)
MIC [3, 15]: >64 µg/mL
MIC [3, 16]: >64 µg/mL
MIC [3, 17]: >64 µg/mL
MIC [3, 18]: >64 µg/mL
MIC [3, 19]: >64 µg/mL
MIC [3, 20]: >64 µg/mL
MIC [3, 21]: >64 µg/mL
MIC [4, 22]: 64 µg/mL (≈ 71.8 µM)
MIC [4, 23]: >64 µg/mL
MIC [4, 24]: >64 µg/mL
MIC [5, 25]: 32 µg/mL (≈ 35.9 µM)
MIC [5, 26]: >64 µg/mL
MIC [6, 27]: 1 µg/mL (≈ 1.12 µM)
MIC [6, 28]: 4 µg/mL (≈ 4.49 µM)
MIC [7, 29]: >64 µg/mL
MIC [7, 30]: 8 µg/mL (≈ 8.98 µM)
MIC [7, 31]: >64 µg/mL
MIC [7, 32]: >64 µg/mL
MIC [8, 33]: >64 µg/mL
MIC [8, 34]: >64 µg/mL
MIC [8, 35]: >64 µg/mL

CCC1OC(=O)C(C)C(=O)C(C)C(OC2OC(C)CC(N(C)CC#N)C2O)C(C)(OC)CC(C)CNC(C)C2N(CCCCn3cc(-c4cccc(N)c4)nn3)C(=O)OC12C (stereo not shown) [FSM-120371]
MIC [1, 9]: 8 µg/mL (≈ 9.38 µM)
MIC [1, 10]: >64 µg/mL
MIC [1, 11]: >64 µg/mL
MIC [2, 12]: 0.25 µg/mL (≈ 0.293 µM)
MIC [2, 13]: 0.25 µg/mL (≈ 0.293 µM)
MIC [2, 14]: 0.5 µg/mL (≈ 0.586 µM)
MIC [3, 15]: >64 µg/mL
MIC [3, 16]: >64 µg/mL
MIC [3, 17]: >64 µg/mL
MIC [3, 18]: 64 µg/mL (≈ 75 µM)
MIC [3, 19]: >64 µg/mL
MIC [3, 20]: 32 µg/mL (≈ 37.5 µM)
MIC [3, 21]: 32 µg/mL (≈ 37.5 µM)
MIC [4, 22]: 32 µg/mL (≈ 37.5 µM)
MIC [4, 23]: >64 µg/mL
MIC [4, 24]: >64 µg/mL
MIC [5, 25]: 4 µg/mL (≈ 4.69 µM)
MIC [5, 26]: 64 µg/mL (≈ 75 µM)
MIC [6, 27]: 0.125 µg/mL (≈ 0.147 µM)
MIC [6, 28]: 1 µg/mL (≈ 1.17 µM)
MIC [7, 29]: 64 µg/mL (≈ 75 µM)
MIC [7, 30]: 16 µg/mL (≈ 18.8 µM)
MIC [7, 31]: 64 µg/mL (≈ 75 µM)
MIC [7, 32]: >64 µg/mL
MIC [8, 33]: >64 µg/mL
MIC [8, 34]: >64 µg/mL
MIC [8, 35]: 32 µg/mL (≈ 37.5 µM)

CCC1OC(=O)C(C)C(=O)C(C)C(OC2OC(C)CC(N(C)CCCS(C)(=O)=O)C2O)C(C)(OC)CC(C)CN(C)C(C)C2N(CCCCn3cc(-c4cccc(N)c4)nn3)C(=O)OC12C (stereo not shown) [FSM-120421]
MIC [1, 36]: 64 µg/mL (≈ 67.5 µM)
MIC [1, 37]: >64 µg/mL
MIC [1, 38]: >64 µg/mL
MIC [3, 39]: >64 µg/mL
MIC [3, 40]: >64 µg/mL
MIC [3, 41]: >64 µg/mL
MIC [3, 42]: >64 µg/mL
MIC [4, 43]: >64 µg/mL
MIC [4, 44]: >64 µg/mL
MIC [4, 45]: >64 µg/mL
MIC [7, 46]: >64 µg/mL
MIC [7, 47]: >64 µg/mL
MIC [7, 48]: >64 µg/mL
MIC [7, 49]: 64 µg/mL (≈ 67.5 µM)
MIC [8, 50]: >64 µg/mL
MIC [8, 51]: >64 µg/mL
MIC [8, 52]: >64 µg/mL

CCC1OC(=O)C(C)C(=O)C(C)C(OC2OC(C)CC(N3CCC(O)C3)C2O)C(C)(OC)CC(C)CNC(C)C2N(CCCCn3cc(-c4cccc(N)c4)nn3)C(=O)OC12C (stereo not shown) [FSM-120416]
MIC [1, 36]: 32 µg/mL (≈ 36.8 µM)
MIC [1, 37]: >64 µg/mL
MIC [1, 38]: >64 µg/mL
MIC [3, 39]: >64 µg/mL
MIC [3, 40]: >64 µg/mL
MIC [3, 41]: >64 µg/mL
MIC [3, 42]: >64 µg/mL
MIC [4, 43]: >64 µg/mL
MIC [4, 44]: >64 µg/mL
MIC [4, 45]: >64 µg/mL
MIC [7, 46]: >64 µg/mL
MIC [7, 47]: >64 µg/mL
MIC [7, 48]: >64 µg/mL
MIC [7, 49]: 8 µg/mL (≈ 9.19 µM)
MIC [8, 50]: >64 µg/mL
MIC [8, 51]: >64 µg/mL
MIC [8, 52]: >64 µg/mL
